Reference: patent US8598137B2, “Use of SAM68 for modulating signaling through the TNF receptor” (California Institute of Technology, priority 2010, dated 2013)

What was measured:
[1] = test system: Wildtype and Sam68 knockout cells; details: hydrogen peroxide 100 μM, 24 hours
Description: Cell death via the intrinsic pathway of apoptosis can be induced by genotoxic and oxidative stress (Roos and Kaina, 2006. Trends in molecular medicine 12, 440-450.) (Dumont et al., 1999. Oncogene 18, 747-757.).

[2] = test system: NF-κB activation in Sam68 knockout fibroblast cells; experiment: IL-1β induced NF-κB activation (IκBα degradation, p65 nuclear translocation); type: cell-based, mouse; details: 100 ng/ml IL-1 beta
Procedure: Wild type control and Sam68 knockout fibroblast cells were treated with TNF (Recombinant human TNFα from Peprotech), and IκBα degradation and nuclear translocation of NF-κB protein were used to monitor the activation of their NF-κB pathway (IκBα antibody was from Santa Cruz Biotechnology; assessment of NF-κB nuclear translocation, cytoplasmic and nuclear extracts were prepared as described by Schreiber et al., 1989).
The Sam68 knockout fibroblast cells were treated with IL-1β (R&D Systems), another proinflammatory cytokine. […] Thus, the NF-κB activation pathway is functional in these Sam68 knockout cells, while Sam68 activity is specifically related to TNF signaling.

With `OO` [hydrogen peroxide] the “death induction, cell morphology” value [1] was “caused death induction in both wildtype and Sam68 knockout cells”.

For “IL-1β: proinflammatory cytokine, recombinant human IL-1 beta (R&D Systems)”, the “NF-κB activation (IκBα degradation and nuclear translocation of p65)” value [2] was “remained intact”.
